In general, IC50 refers to the point on the concentration scale where inhibition reaches its midpoint.

Among the data in article PMC3977574, “Structural Basis of Mos1 Transposase Inhibition by the Anti-retroviral Drug Raltegravir” (ACS Chemical Biology, 2014) are IC50 values, retold here.

Structures are written as SMILES.

The experiment deals with T1, Mos1 transposase (Drosophila mauritiana, UniProt Q7JQ07, T216A).
T1 construct: gene mariner\T; Mos1 transposase catalytic domain (crystal); Mos1 transposase and paired-end complex (thermal denaturation and activity assays)
T1 sequence (Q7JQ07 whole entry T216A, the tested form may be a part): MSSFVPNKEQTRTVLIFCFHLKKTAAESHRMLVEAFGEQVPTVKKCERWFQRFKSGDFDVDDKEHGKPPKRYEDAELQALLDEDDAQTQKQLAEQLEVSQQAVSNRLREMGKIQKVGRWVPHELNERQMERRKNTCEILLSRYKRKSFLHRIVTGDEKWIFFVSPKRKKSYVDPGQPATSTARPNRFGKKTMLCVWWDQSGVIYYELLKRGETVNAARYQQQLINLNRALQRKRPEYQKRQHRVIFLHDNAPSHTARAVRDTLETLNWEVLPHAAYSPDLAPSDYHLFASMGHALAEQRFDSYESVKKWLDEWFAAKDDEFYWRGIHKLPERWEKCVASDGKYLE
Put plainly: X-ray co-crystal structures at […] Å (soak); thermal denaturation shift; strand transfer assay IC50 […]; plasmid cleavage assay IC50 […]. Format: biochemical.

As to `Cc1nnc(C(=O)NC(C)(C)c2nc(C(=O)NCc3ccc(F)cc3)c(O)c(=O)n2C)o1` [Raltegravir], the IC50 was approximately 2 µM.
